From ChEMBL document CHEMBL2074300, “Induction profile of rat organic anion transporting polypeptide 2 (oatp2) by prototypical drug-metabolizing enzyme inducers that activate gene expression through ligand-activated transcription factor pathways” (J Pharmacol Exp Ther, 2002)

Tests used:
[1] = target: T1, Solute carrier organic anion transporter family member 1A4 (Rattus norvegicus, UniProt O35913); experiment: TP_TRANSPORTER: Western in vivo SD rat, liver; assay type: functional, organism-based, Sprague-Dawley
T1 sequence (O35913 whole entry): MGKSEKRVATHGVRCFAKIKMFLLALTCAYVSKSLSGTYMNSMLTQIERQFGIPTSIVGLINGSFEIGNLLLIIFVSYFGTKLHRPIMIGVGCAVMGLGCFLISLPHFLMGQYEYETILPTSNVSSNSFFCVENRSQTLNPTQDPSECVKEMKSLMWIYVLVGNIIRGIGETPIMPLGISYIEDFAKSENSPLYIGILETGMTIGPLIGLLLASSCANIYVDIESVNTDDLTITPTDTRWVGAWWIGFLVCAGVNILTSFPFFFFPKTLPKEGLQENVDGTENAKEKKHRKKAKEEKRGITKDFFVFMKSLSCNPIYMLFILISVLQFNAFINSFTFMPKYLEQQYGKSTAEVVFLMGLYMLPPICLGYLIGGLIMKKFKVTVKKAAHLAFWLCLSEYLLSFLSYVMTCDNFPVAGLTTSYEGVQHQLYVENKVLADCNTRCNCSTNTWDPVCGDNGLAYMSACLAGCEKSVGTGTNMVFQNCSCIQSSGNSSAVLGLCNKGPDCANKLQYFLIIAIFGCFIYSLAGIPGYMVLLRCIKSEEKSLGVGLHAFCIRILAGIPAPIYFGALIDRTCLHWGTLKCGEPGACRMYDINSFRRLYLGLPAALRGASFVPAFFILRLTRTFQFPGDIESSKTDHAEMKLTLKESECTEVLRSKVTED

[2] = target: T1, Solute carrier organic anion transporter family member 1A4; experiment: TP_TRANSPORTER: Northern blot in vivo SD rat, liver; assay type: functional, organism-based, Sprague-Dawley

SMILES | Activity [1] | Activity [2]
Clc1cc2c(cc1Cl)Oc1cc(Cl)c(Cl)cc1O2 [2,3,7,8-TETRACHLORODIBENZO-P-DIOXIN] | inducer [Decrease] | –
O=c1cc(-c2ccccc2)oc2ccc3ccccc3c12 [BETA-NAPHTHOFLAVONE] | inducer [Decrease] | –
CCCC[C@@H](CC)COC(=O)c1ccccc1C(=O)OC[C@@H](CC)CCCC [BIS(2-ETHYLHEXYL)PHTHALATE] | inducer [+] | –
C[C@@H]1C[C@H]2[C@@H]3CCC4=CC(=O)C=C[C@]4(C)[C@@]3(F)[C@@H](O)C[C@]2(C)[C@@]1(O)C(=O)CO [DEXAMETHASONE] | inducer [+] | –
C=CCSCC=C [DIALLYL SULFIDE] | inducer [+] | inducer [+]
OCc1c[nH]c2ccccc12 [INDOLE-3-CARBINOL] | inducer [Decrease] | inducer [+]
CCC1(c2ccccc2)C(=O)NC(=O)NC1=O [PHENOBARBITAL] | inducer [+] | –
Clc1ccc(-c2cc(Cl)c(Cl)cc2Cl)c(Cl)c1 [POLYCHLORINATED BIPHENYL 99] | inducer [+] | –
Clc1ccc(-c2cc(Cl)c(Cl)c(Cl)c2)cc1Cl [POLYCHLORINATED BIPHENYL 126] | inducer [Decrease] | –
CC(=O)[C@H]1[C@H](C#N)C[C@H]2[C@@H]3CC=C4C[C@@H](O)CC[C@]4(C)[C@H]3CC[C@@]21C [PREGNENOLONE CARBONITRILE] | inducer [+] | inducer [+]
CC(=O)S[C@@H]1CC2=CC(=O)CC[C@]2(C)[C@H]2CC[C@@]3(C)[C@@H](CC[C@@]34CCC(=O)O4)[C@H]12 [SPIRONOLACTONE] | inducer [+] | –
